Results on 1 compound are retold here after patent publication US9072732B2 (priority 2010, dated 2015).

Data set [1] has as its system high-fat-induced NAFLD in rats. Kind of data set: High-fat diet-induced NAFLD model in rats. To be noted: 4 weeks.
The next data set has as its system Hep G2 cells. To be noted: niacin 0.5 mM 24 h, then ethanol 48 h in presence or absence of niacin.

From the text for Hep G2 cells: Cellular fat accumulation was quantitated by nile red O staining and by measuring fluorescence intensity.

With `O=C(O)c1cccnc1` [niacin, nicotinic acid], in data set [1] (niacin 0.5% and 1% in high-fat diet, compared to rats fed high-fat diet), the serum cholesterol levels entry was “significantly decreased”. In addition, the “body weight of rats” value in data set [1] (niacin 0.5% or 1% in high-fat diet, compared to high-fat fed rats) is on record as “no effect”. Further, in data set [1] (niacin in high-fat diet, compared to rats fed high-fat diet), the serum triglyceride levels entry was “significantly decreased”. Besides, in the data set on Hep G2 cells, the alcohol-induced fat accumulation result is listed as “significantly inhibited”.
